Experimental findings from PubChem BioAssay (NCI) are described below.

Common to all, as to test: DTP human tumour cell line panel, 48 h
In experiment [1] the test system is BT-549 breast.
For experiment [2], the system named is HCC-2998 colon.
The test system of experiment [3] is HCT-15 colon.
The subject of experiment [4] is K-562 leukemia.
For experiment [5], the system named is MALME-3M melanoma.
Experiment [6] relates to SN12C renal.
Experiment [7] concerns UACC-257 melanoma.
In experiment [8] the test system is SK-MEL-2 melanoma.

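In this assay, cells in 96-well plates receive the compound at five concentrations for 48 hours. Endpoints are linearly interpolated between the surrounding concentrations. GI50 is the concentration that inhibits growth by half. The concentration for full growth arrest is given as TGI.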 Bounds are passed on as bounds.

As usually defined, the TGI is the concentration at which net growth stops. Read a high TGI as less potent growth arrest. Turning to `COC(=O)C(=O)CC(=O)c1cccc(OC)c1`, the TGI in experiment [1], in experiment [2], in experiment [3], in experiment [4], in experiment [5] and in experiment [6] was above 100 µM each time. In experiment [7], this molecule yielded a TGI above 100 µM.

In general, GI50 refers to the concentration at which growth is held to half of that of the control. For the molecule `O=C(NC1CCCCC1)c1ccc(Nc2ncnc3c2cnn3-c2ccccc2)cc1`, the GI50 in experiment [1] is 5.69 µM; in experiment [2], above 100 µM; in experiment [3], 99.3 µM; in experiment [5], 1.97 µM; in experiment [8], 13.6 µM; in experiment [6] it was 8.26 µM. For the same molecule, in experiment [7], the GI50 is 6.42 µM. Also, the TGI in experiment [1] is 26.4 µM; in experiment [2], above 100 µM; in experiment [3] it was above 100 µM; in experiment [5] it was 4.94 µM; in experiment [8], 36.2 µM; in experiment [6] it was above 100 µM. In experiment [7], this molecule registered a TGI above 100 µM.

Turning to `O=C1/C(=C/N2N=C(c3ccc4ccccc4c3)CC2c2ccccc2O)SC(=S)N1c1cccnc1` (configuration not stated), the GI50 is 3.06 µM in experiment [2]; 0.428 µM in experiment [3]; 0.341 µM in experiment [4]; 5.2 µM in experiment [5]; 2.22 µM in experiment [6]. For the same molecule, the TGI in experiment [2], in experiment [3], in experiment [4], in experiment [5] and in experiment [6] was above 100 µM each time.

As for `O=C(Nc1ccc(Cl)cc1)Nc1nccs1`, the GI50 was 8.68 µM in experiment [1]; 12.9 µM in experiment [2]; 0.46 µM in experiment [3]; 0.5 µM in experiment [4]; 3.37 µM in experiment [5]; 0.784 µM in experiment [8]. For the same molecule, the GI50 in experiment [6] is 5.22 µM. In addition, the TGI was 57.9 µM in experiment [1]; 45.9 µM in experiment [2]; above 100 µM in experiment [3]; above 100 µM in experiment [4]; 54.1 µM in experiment [5]; 43.3 µM in experiment [8]. Also, in experiment [6], the TGI was above 100 µM.

As to `COc1cc(C(=O)O[C@H](C(N)=O)[C@]2(C)CO2)c2cccc(C)c2c1`, the GI50 was below 0.0418 µM in experiment [1]; 0.0257 µM in experiment [2]; 0.282 µM in experiment [3]; 0.13 µM in experiment [5]; below 0.01 µM in experiment [8]; below 0.01 µM in experiment [6]. For the same molecule, in experiment [7], the GI50 was 1.49 µM. Also, the TGI came out at 0.655 µM in experiment [1]; 0.54 µM in experiment [2]; 2.82 µM in experiment [3]; 0.646 µM in experiment [5]; 0.0478 µM in experiment [8]; 0.245 µM in experiment [6]. This molecule returned a TGI in experiment [7] above 21.3 µM.

For the molecule `N#CC(C#N)=C1CCCOc2c1ccc1ccccc21`, the GI50 in experiment [1] was 98.8 µM; in experiment [2], above 100 µM; in experiment [3], above 100 µM; in experiment [4] it was 20.4 µM; in experiment [5], above 100 µM; in experiment [6], above 100 µM. In addition, the TGI in experiment [1] is above 100 µM; in experiment [2] it was above 100 µM; in experiment [3], above 100 µM; in experiment [4], 43.5 µM; in experiment [5], above 100 µM; in experiment [6] it was above 100 µM.

Turning to `COc1ccc(/C=C/c2cnccn2)cc1OC`, the TGI in experiment [1], in experiment [2], in experiment [3], in experiment [5], in experiment [8] and in experiment [6] was above 10 µM throughout. This molecule gave a TGI in experiment [7] above 10 µM.

For the molecule `Cc1c2c(C(N)=O)nccc2c(C)c2c1c1ccccc1n2Cc1ccccc1`, the TGI amounted to 90.4 µM in experiment [1]; 73.1 µM in experiment [2]; 44.2 µM in experiment [3]; 45.7 µM in experiment [4]; 43.3 µM in experiment [8]; 44.8 µM in experiment [6]. In experiment [7], this molecule returned a TGI above 100 µM.

Take `C=CCn1c(SCC(=O)Nc2ccc(C(=O)/C=C/c3cc(OC)c(OC)c(OC)c3)cc2)nnc1-c1ccc(OC)cc1`: the GI50 in experiment [1] is 0.209 µM; in experiment [2], 0.175 µM; in experiment [3], 0.277 µM; in experiment [4], 0.363 µM; in experiment [5] it was 1.89 µM; in experiment [8], 2.1 µM. Also, the GI50 in experiment [6] is 0.839 µM. Moreover, the TGI was 0.546 µM in experiment [1]; 0.379 µM in experiment [2]; 1.26 µM in experiment [3]; above 100 µM in experiment [4]; 36.8 µM in experiment [5]; 15.4 µM in experiment [8]. Further, the TGI in experiment [6] was 19.1 µM.

Regarding `NC(=O)CNc1ccc([As]=[As]c2ccc(NCC(N)=O)cc2)cc1` (configuration not stated), the GI50 in experiment [2] was 13.9 µM; in experiment [3], 4.21 µM; in experiment [4], 3.47 µM; in experiment [5] it was 2.62 µM; in experiment [7] it was 12.4 µM. Besides, the TGI in experiment [2] was 29.7 µM; in experiment [3], 60.7 µM; in experiment [4] it was above 100 µM; in experiment [5], 9.71 µM; in experiment [7] it was 39.6 µM.

As for `COc1ccc(-c2ccc(NNC(=O)c3ccc(F)cc3)nn2)cc1OC`, the GI50 is 22.9 µM in experiment [1]; above 100 µM in experiment [2]; 65.5 µM in experiment [3]; 58.7 µM in experiment [4]; above 100 µM in experiment [5]; above 100 µM in experiment [6]. For the same molecule, the GI50 in experiment [7] was above 100 µM. Besides, the TGI in experiment [1], in experiment [2], in experiment [3], in experiment [4], in experiment [5] and in experiment [6] was above 100 µM each time. The TGI in experiment [7] is above 100 µM.

Turning to `Oc1ccc(/C=C/c2cc(O)cc3c2C(c2cc(O)cc(O)c2)C(c2ccc(O)c(O)c2)O3)cc1` (configuration not stated), the TGI in experiment [1] is 64.4 µM; in experiment [2], 57.4 µM; in experiment [3], 45.4 µM; in experiment [5], 80.6 µM; in experiment [8], 74.8 µM; in experiment [6], above 100 µM. In experiment [7], this molecule came in with a TGI above 100 µM.

Turning to `c1ccc(NCCSc2nc3ccccc3s2)cc1`, the TGI in experiment [1] is above 100 µM; in experiment [3], 43 µM; in experiment [4], above 100 µM; in experiment [5], above 100 µM; in experiment [8], above 100 µM; in experiment [6], above 100 µM. In experiment [7], the TGI was 77 µM.
